In article PMC8878047 (Pharmaceutics, 2022):
Where two headings read alike, the source gives them in different places.

How the values were obtained:
[1] = test system: wild type AB strain zebrafish; settings: for statistical survival of the tested zebrafish / statistical death of the tested zebrafish: 30 embryos per well
Description: Zebrafish were incubated and grown in the Joint Laboratory established by Shandong Rui’ying Pharmaceutical Group (Heze, China) and China Pharmaceutical University. Both the Wild-type AB (Danio rerio) and Tg(mpx:eGFP) zebrafish strains were maintained under the guidance of the standard procedures of The Zebrafish Book. […] Then the zebrafish were allowed to naturally mate and spawn the next morning. The normally born embryos were then collected after 1 h and kept in an incubating system at 28 °C. The 6 hpf (hour post fertilization) embryos were transferred into a 6-well plate exposed to 5 mL of egg water, in which 30 embryos were in each well.

[2] = Description: All tests were conducted in the animal experimental center of Guangxi Medical University. Preliminary experiments were needed before starting official tests. […] Groups of mice (n = 10 per group, half male and half female) received different doses of the tested compounds by gavage at the same single dose of drug solution, which was uniformed to be […] (drug solution)/10 g, but containing different concentration of tested drugs. […] We compared these mice with the control group in which the mice were not given drugs, according to the pre-experimental procedure. We closely observed the mice for 6 h after the gavage for signs of toxicity and mortality. As soon as death occurred among the maximum-dose group, we conducted an autopsy and took samples from the main organs for histopathological examination. In addition, we monitored all of the tested mice for 2 weeks to record their weight and mortality.
[3] = test system: H2O2-induced ROS production; test: H2O2-induced oxidative stress model in zebrafish (DCFH-DA); settings: 48 h pre-treatment, H2O2 1.0 mM 4 h, H2O2-induced 17,250, control 590
[4] = Pharmacokinetic study in plasma after oral administration (HPLC-MS); settings: SD rats, EFX 10 mg/kg, EFX-Ca 12 mg/kg

## CCN1CCN(c2cc3c(cc2F)c(=O)c(C(=O)[O-])cn3C2CC2)CC1.CCN1CCN(c2cc3c(cc2F)c(=O)c(C(=O)[O-])cn3C2CC2)CC1.O.O.O.O.[Ca+2] [EFX-Ca, [Ca(EFX)2(H2O)4]·H2O]
[1]; 10 μM medicated bath, 48 hpf
  statistical survival of the tested zebrafish: 26
[1]; 10 μM medicated bath, 72 hpf
  statistical death of the tested zebrafish: 4
  statistical survival of the tested zebrafish: 26
[1]; 10 μM medicated bath, 96 hpf
  statistical death of the tested zebrafish: 4
  statistical survival of the tested zebrafish: 26
[1]; 10 μM medicated bath, 120 hpf
  statistical death of the tested zebrafish: 4
  statistical survival of the tested zebrafish: 26
[1]; 20 μM medicated bath, 24 hpf
  statistical death of the tested zebrafish: 0
  statistical survival of the tested zebrafish: 30
[1]; 20 μM medicated bath, 48 hpf
  statistical death of the tested zebrafish: 0
  statistical survival of the tested zebrafish: 30
[1]; 20 μM medicated bath, 72 hpf
  statistical death of the tested zebrafish: 0
  statistical survival of the tested zebrafish: 30
[1]; 20 μM medicated bath, 96 hpf
  statistical death of the tested zebrafish: 0
  statistical survival of the tested zebrafish: 30
[1]; 20 μM medicated bath, 120 hpf
  statistical death of the tested zebrafish: 0
  statistical survival of the tested zebrafish: 30
[1]; full-range concentration 0.01 to 20 μM, 24 to 120 hpf
  physiological abnormalities of zebrafish: no obvious physiological abnormalities
[2]; 2000 mg/kg single gavage, Day-0
  Body Weight (g, x¯ ± SD): 17.51 ± 1.14 g
[2]; 2000 mg/kg single gavage, Day-1
  Body Weight (g, x¯ ± SD): 19.77 ± 1.22 g
[2]; 2000 mg/kg single gavage, Day-4
  Body Weight (g, x¯ ± SD): 25.91 ± 1.83 g
[2]; 2000 mg/kg single gavage, Day-7
  Body Weight (g, x¯ ± SD): 29.78 ± 3.46 g
[2]; 2000 mg/kg single gavage, Day-14
  Body Weight (g, x¯ ± SD): 33.33 ± 5.64 g
[2]; 3031 mg/kg single gavage, Day-0
  Body Weight (g, x¯ ± SD): 18.32 ± 0.94 g
[2]; 3031 mg/kg single gavage, Day-1
  Body Weight (g, x¯ ± SD): 19.61 ± 1.23 g
[2]; 3031 mg/kg single gavage, Day-4
  Body Weight (g, x¯ ± SD): 25.70 ± 1.24 g
[2]; 3031 mg/kg single gavage, Day-7
  Body Weight (g, x¯ ± SD): 28.44 ± 2.14 g
[2]; 3031 mg/kg single gavage, Day-14
  Body Weight (g, x¯ ± SD): 33.91 ± 5.25 g
[2]; 4595 mg/kg single gavage, Day-0
  Body Weight (g, x¯ ± SD): 17.31 ± 1.05 g
[2]; 4595 mg/kg single gavage, Day-1
  Body Weight (g, x¯ ± SD): 17.09 ± 1.56 g
[2]; 4595 mg/kg single gavage, Day-4
  Body Weight (g, x¯ ± SD): 20.10 ± 5.55 g
[2]; 4595 mg/kg single gavage, Day-7
  Body Weight (g, x¯ ± SD): 26.43 ± 5.34 g
[2]; 4595 mg/kg single gavage, Day-14
  Body Weight (g, x¯ ± SD): 33.60 ± 7.07 g
[2]; 6964 mg/kg single gavage, Day-0
  Body Weight (g, x¯ ± SD): 17.68 ± 0.88 g
[2]; 6964 mg/kg single gavage, Day-1
  Body Weight (g, x¯ ± SD): 17.21 ± 1.22 g
[2]; 6964 mg/kg single gavage, Day-4
  Body Weight (g, x¯ ± SD): 16.89 ± 5.13 g
[2]; 6964 mg/kg single gavage, Day-7
  Body Weight (g, x¯ ± SD): 23.11 ± 4.21 g
[2]; 6964 mg/kg single gavage, Day-14
  Body Weight (g, x¯ ± SD): 29.30 ± 5.26 g
[2]; 10,556 mg/kg single gavage, Day-0
  Body Weight (g, x¯ ± SD): 17.67 ± 0.72 g
[2]; 10,556 mg/kg single gavage, Day-1
  Body Weight (g, x¯ ± SD): 17.00 ± 0.30 g
[2]; 10,556 mg/kg single gavage, Day-4
  Body Weight (g, x¯ ± SD): 21.53 ± 2.10 g
[2]; 10,556 mg/kg single gavage, Day-7
  Body Weight (g, x¯ ± SD): 26.47 ± 3.50 g
[2]; 10,556 mg/kg single gavage, Day-14
  Body Weight (g, x¯ ± SD): 34.00 ± 7.50 g
[2]; 16,000 mg/kg single gavage, Day-0
  Body Weight (g, x¯ ± SD): 17.84 ± 1.23 g
[2]; 16,000 mg/kg single gavage, Day-1
  Body Weight (g, x¯ ± SD): 17.43 ± 1.95 g
[2]; 16,000 mg/kg single gavage, Day-4
  Body Weight (g, x¯ ± SD): 23.55 ± 2.66 g
[2]; 16,000 mg/kg single gavage, Day-7
  Body Weight (g, x¯ ± SD): 29.15 ± 2.66 g
[2]; 16,000 mg/kg single gavage, Day-14
  Body Weight (g, x¯ ± SD): 37.25 ± 4.57 g
[3]; 0.01 μM
  Average IOD (integrated optical density) of green fluorescence: 1060 a.u.
[3]; 0.1 μM
  Average IOD (integrated optical density) of green fluorescence: 721 a.u.
[3]; 1 μM
  Average IOD (integrated optical density) of green fluorescence: 863 a.u.
[4]; plasma
  Ke: 0.16
  Tmax: 0.75 H
  Vd: 0.26744 L/kg
  t 1/2β: 4.41 H
[4]; male, SD, rat, in vivo, Drug concentration in plasma, 0 h
  concentration at 0 h: 80 ng/mL
[4]; male, SD, rat, in vivo, Drug concentration in plasma, 0.083 h
  concentration at 0.083 h: 860 ng/mL
[4]; male, SD, rat, in vivo, Drug concentration in plasma, 0.333 h
  concentration at 0.333 h: 840 ng/mL
[4]; male, SD, rat, in vivo, Drug concentration in plasma, 0.5 h
  concentration at 0.5 h: 1690 ng/mL
[4]; male, SD, rat, in vivo, Drug concentration in plasma, 0.75 h
  concentration at 0.75 h: 1920 ng/mL
[4]; male, SD, rat, in vivo, Drug concentration in plasma, 1 h
  concentration at 1 h: 1390 ng/mL
[4]; male, SD, rat, in vivo, Drug concentration in plasma, 3 h
  concentration at 3 h: 770 ng/mL
[4]; male, SD, rat, in vivo, Drug concentration in plasma, 4 h
  concentration at 4 h: 700 ng/mL
[4]; male, SD, rat, in vivo, Drug concentration in plasma, 6 h
  concentration at 6 h: 580 ng/mL
[4]; male, SD, rat, in vivo, Drug concentration in plasma, 8 h
  concentration at 8 h: 480 ng/mL
[4]; male, SD, rat, in vivo, Drug concentration in plasma, 10 h
  concentration at 10 h: 100 ng/mL
[4]; male, SD, rat, in vivo, Drug concentration in plasma, 12 h
  concentration at 12 h: 140 ng/mL
[4]; male, SD, rat, in vivo, Drug concentration in plasma, 24 h
  concentration at 24 h: 90 ng/mL
